# Measured values taken from publication PMC12401824, “Studies on the impact of modifications at the Gln-Trp site in RM2-based GRPR ligands” (EJNMMI Research, 2025).
# Where two headings read alike, the source gives them in different places. Starred links: 1 amine or outer side, 2 acyl side, 3 side chain; linkers in the order of their positions; H or OH if unused. Non-standard residues stand in square brackets, D forms with d. Residues, ends and D or L forms follow the SMILES beside them. *: point of attachment. DOTA = O=C(O)CN1CCN(CC(=O)O)CCN(CC(=O)*)CCN(CC(=O)O)CC1; Sta = CC(C)C[C@H](N)[C@@H](O)CC(=O)O; Bta = N[C@@H](Cc1csc2ccccc12)C(=O)O; X1 = O=C(CN1CCC(N[*:1])CC1)[*:2]; hSer = N[C@@H](CCO)C(=O)O
# Experiments:
# [1] = Biodistribution in PC-3 tumor-bearing CB17-SCID mice; format: in vivo; details: mouse, 100 pmol, ^68Ga-labeled, 1 h p.i., n = 4; for tissue to tissue ratio at 1 h: CB17-SCID, iv, total radioactivity; for tissue uptake at 1 h: intravenous
# Procedure: (§1) To establish tumor xenografts, PC-3 cells (5.0 × 10^6 cells per 200 µL) were suspended in a 1/1 mixture (v/v) of Dulbecco’s modified eagle's medium/Ham’s F-12 with Glutamax-I (v/v = 1/1) and Cultrex® Basement Membrane Matrix Type 3 (Trevigen Inc., Gaithersburg, MD, USA) and inoculated subcutaneously onto the right shoulder of CB17-SCID mice (Charles River Laboratories International Inc., Sulzfeld, Germany). Mice (n = 4) were used for experiments when tumor volume has reached 125–500 mm^3 (2–3 weeks after inoculation).
# (§2) Biodistribution. […] (n = 4), respectively. Selected organs were removed, weighted and measured in a γ-counter.
# PC-3 tumor xenograft = experiment: as above; format: in vivo; details: ^68Ga-labeled; 1 h p.i.; n = 4
# Procedure: as §1, §2
# [2] = tumor and blood, read-out: Tumor-to-Blood ratio
# [3] = tumor and bone, read-out: Tumor-to-Bone ratio
# [4] = tumor and heart, read-out: Tumor-to-Heart ratio
# [5] = tumor and intestine, read-out: Tumor-to-Intestine ratio
# [6] = tumor and kidney, read-out: Tumor-to-Kidney ratio
# [7] = tumor and liver, read-out: Tumor-to-Liver ratio
# [8] = tumor and lung, read-out: Tumor-to-Lung ratio
# [9] = tumor and muscle, read-out: Tumor-to-Muscle ratio
# [10] = tumor and pancreas, read-out: Tumor-to-Pancreas ratio
# [11] = tumor and spleen, read-out: Tumor-to-Spleen ratio
# [12] = tumor and stomach, read-out: Tumor-to-Stomach ratio
# [13] = adrenal, read-out: Uptake in Adrenal
# [14] = blood, read-out: Uptake in Blood
# [15] = heart, read-out: Uptake in Heart
# [16] = intestine, read-out: Uptake in Intestine
# [17] = kidney, read-out: Uptake in Kidney
# [18] = liver, read-out: Uptake in Liver
# [19] = muscle, read-out: Uptake in Muscle
# [20] = pancreas, read-out: Uptake in Pancreas
# [21] = spleen, read-out: Uptake in Spleen
# [22] = stomach, read-out: Uptake in Stomach
# [23] = tumor, read-out: Uptake in Tumor
"tissue to tissue ratio at 1 h [1, 2]","tissue to tissue ratio at 1 h [1, 3]","tissue to tissue ratio at 1 h [1, 4]","tissue to tissue ratio at 1 h [1, 5]","tissue to tissue ratio at 1 h [1, 6]","tissue to tissue ratio at 1 h [1, 7]","tissue to tissue ratio at 1 h [1, 8]","tissue to tissue ratio at 1 h [1, 9]","tissue to tissue ratio at 1 h [1, 10]","tissue to tissue ratio at 1 h [1, 11]","tissue to tissue ratio at 1 h [1, 12]","tissue uptake at 1 h [1, 13]","tissue uptake at 1 h [1, 14]","tissue uptake at 1 h ([1]; bone, read-out: Uptake in Bone)","tissue uptake at 1 h [1, 15]","tissue uptake at 1 h [1, 16]","tissue uptake at 1 h [1, 17]","tissue uptake at 1 h [1, 18]","tissue uptake at 1 h ([1]; lung, read-out: Uptake in Lung)","tissue uptake at 1 h [1, 19]",SMILES,further results
7.6 ± 2.6,29.5 ± 8.2,19.8 ± 5,12.2 ± 4.5,3.3 ± 0.6,10.7 ± 2.3,8.8 ± 3,50.6 ± 19.4,1.9 ± 1.3,18.7 ± 6.9,7.1 ± 0.7,1.95 ± 1.3 %ID/g,1.07 ± 0.27 %ID/g,0.3 ± 0.15 %ID/g,0.4 ± 0.1 %ID/g,0.66 ± 0.14 %ID/g,2.33 ± 0.25 %ID/g,0.73 ± 0.17 %ID/g,0.92 ± 0.22 %ID/g,0.19 ± 0.11 %ID/g,"CC(C)C[C@H](NC(=O)C[C@H](O)[C@H](CC(C)C)NC(=O)[C@H](Cc1c[nH]cn1)NC(=O)CNC(=O)[C@@H](NC(=O)[C@H](C)NC(=O)[C@H](Cc1csc2ccccc12)NC(=O)[C@H](CCC(N)=O)NC(=O)[C@@H](Cc1ccccc1)NC(=O)CN1CCC(NC(=O)CN2CCN(CC(=O)O)CCN(CC(=O)O)CCN(CC(=O)O)CC2)CC1)C(C)C)C(N)=O [[^68Ga]Ga-[Bta^8]RM2, metal not drawn] ({DOTA}-[X1][dF]Q[Bta]AVGH[Sta]L-NH2)","tissue uptake at 1 h [1, 20]: < 8 %ID/g; tissue uptake at 1 h [1, 21]: 0.46 ± 0.16 %ID/g; tissue uptake at 1 h [1, 22]: 1.07 ± 0.14 %ID/g; tissue uptake at 1 h [1, 23]: ~7.5 %ID/g; Tumor-to-Adrenal ratio (PC-3 tumor xenograft): 13.3 ± 17.2"
1.9 ± 0.1,7.8 ± 0.7,6 ± 0.9,5 ± 0.3,2.2 ± 0.2,5.1 ± 0.5,3.3 ± 0.6,22.8 ± 3.4,0.9 ± 0.1,5 ± 0.7,4.1 ± 0.3,2.47 ± 0.3 %ID/g,3.92 ± 0.07 %ID/g,0.98 ± 0.12 %ID/g,1.29 ± 0.14 %ID/g,1.52 ± 0.1 %ID/g,3.51 ± 0.2 %ID/g,1.49 ± 0.06 %ID/g,2.33 ± 0.28 %ID/g,0.34 ± 0.04 %ID/g,"CC(C)C[C@H](NC(=O)C[C@H](O)[C@H](CC(C)C)NC(=O)[C@H](Cc1c[nH]cn1)NC(=O)CNC(=O)[C@@H](NC(=O)[C@H](C)NC(=O)[C@H](Cc1c[nH]c2ccccc12)NC(=O)[C@H](CCO)NC(=O)[C@@H](Cc1ccccc1)NC(=O)CN1CCC(NC(=O)CN2CCN(CC(=O)O)CCN(CC(=O)O)CCN(CC(=O)O)CC2)CC1)C(C)C)C(N)=O [[^68Ga]Ga-[Hse^7]RM2, metal not drawn] ({DOTA}-[X1][dF][hSer]WAVGH[Sta]L-NH2)","tissue uptake at 1 h [1, 20]: < 8 %ID/g; tissue uptake at 1 h [1, 21]: 1.55 ± 0.15 %ID/g; tissue uptake at 1 h [1, 22]: 1.88 ± 0.06 %ID/g; tissue uptake at 1 h [1, 23]: ~7.5 %ID/g; Tumor-to-Adrenal ratio (PC-3 tumor xenograft): 1.4 ± 1.1"
